Values after ≈ are worked out from the molar mass of the structure shown. Like-named read-outs stand apart in the source and are kept apart here. Blank lines part the entries; values can stand above or below the compound they belong to.
Experiments:
Test in all cases: agar serial dilution test (MIC)
Format in all cases: cell-based
E. coli 01 = system: E. coli 01
Description: (§1) The antibiotic activity in vitro of some compounds according to the invention and of some previously known compounds was tested by means of an agar serial dilution test. The following compounds were tested: 7β-[2-(2-Aminothiazol-4-yl)-2-diethylphosphoryloxyiminoacetamido] cephalosporanic acid (designated ES 643, 7β-[2-(2-amino- thiazol-4-yl)-2-dimethylphosphoryloxyiminoacetamido] cephalosporanic acid (designated ES 671), 7β-[2-(2-amino- thiazol-4-yl)-2-dimorpholinophosphoryloxyiminoacetamido] cephalosporanic acid (designated ES 656), 7β-[2-(2-amino- thiazol-4-yl)-2-methylmethylphosphonyloxyiminoacetamido] cephalosporanic acid (designated ES 682), 7β-[2-(2-amino- thiazol-4-yl)-2-hydroxyiminoacetamido] cephalosporanic acid (designated A), cefuroxime (designated B), and cephalotin (designated C). MIC designates minimum inhibitory concentration.

E. coli 04 = system: E. coli 04
Description: as §1

K. edwardsii K1 = system: K. edwardsii K1
Description: as §1

K. pneumoniae K8 = conditions: Klebsiella pneumoniae
Description: as §1

P. mirabilis 2255 = system: P. mirabilis 2255
Description: as §1

P. mirabilis 2311 = system: P. mirabilis 2311
Description: as §1

P. mirabilis 682 = system: P. mirabilis 682
Description: as §1

P. morganii 18 = system: P. morganii 18
Description: as §1

P. morganii 69 = system: P. morganii 69
Description: as §1

P. vulgaris 16868 = system: P. vulgaris 16868
Description: as §1

P. vulgaris 17028 = system: P. vulgaris 17028
Description: as §1

P. vulgaris 5209 = system: P. vulgaris 5209
Description: as §1

S. albus 12228 = system: S. albus 12228
Description: as §1

S. albus 3348 = system: S. albus 3348
Description: as §1

S. albus 3578 = system: S. albus 3578
Description: as §1

S. aureus 13709 = system: S. aureus 13709
Description: as §1

S. aureus 209P = conditions: Staphylococcus aureus
Description: as §1

S. aureus 3349 = system: S. aureus 3349
Description: as §1

S. aureus 3356 = system: S. aureus 3356
Description: as §1

S. pyogenes 12334 = system: S. pyogenes 12334
Description: as §1

S. pyogenes 12384 = system: S. pyogenes 12384
Description: as §1

[1] = Escherichia coli, E. coli 01, read-out: MIC value
[2] = Escherichia coli, E. coli 04, read-out: MIC value
[3] = K. edwardsii K1, read-out: MIC value
[4] = K. pneumoniae K8, read-out: MIC value
[5] = Proteus mirabilis, P. mirabilis 2255, read-out: MIC value
[6] = Proteus mirabilis, P. mirabilis 2311, read-out: MIC value
[7] = Proteus mirabilis, P. mirabilis 682, read-out: MIC value
[8] = Morganella morganii, P. morganii 18, read-out: MIC value
[9] = Morganella morganii, P. morganii 69, read-out: MIC value
[10] = Proteus vulgaris, P. vulgaris 16868, read-out: MIC value
[11] = Proteus vulgaris, P. vulgaris 17028, read-out: MIC value
[12] = Proteus vulgaris, P. vulgaris 5209, read-out: MIC value
[13] = Staphylococcus albus, S. albus 12228, read-out: MIC value
[14] = Staphylococcus albus, S. albus 3348, read-out: MIC value
[15] = Staphylococcus albus, S. albus 3578, read-out: MIC value
[16] = Staphylococcus aureus, S. aureus 13709, read-out: MIC value
[17] = S. aureus 209P, read-out: MIC value
[18] = Staphylococcus aureus, S. aureus 3349*, penicillin-resistant strain, read-out: MIC value
[19] = Staphylococcus aureus, S. aureus 3356*, penicillin-resistant strain, read-out: MIC value
[20] = Streptococcus pyogenes, S. pyogenes 12334, read-out: MIC value
[21] = Streptococcus pyogenes, S. pyogenes 12384, read-out: MIC value

MIC (E. coli 01; [1]): < 0.1 µg/mL | MIC (E. coli 04; [2]): 0.2 µg/mL (≈ 0.453 µM) | MIC (K. edwardsii K1; [3]): 0.2 µg/mL (≈ 0.453 µM) | MIC (K. pneumoniae K8; [4]): 0.4 µg/mL (≈ 0.906 µM) | MIC (P. mirabilis 2255; [5]): < 0.1 µg/mL | MIC (P. mirabilis 2311; [6]): < 0.1 µg/mL | MIC (P. mirabilis 682; [7]): < 0.1 µg/mL | MIC (P. morganii 18; [8]): 0.2 µg/mL (≈ 0.453 µM) | MIC (P. morganii 69; [9]): 0.2 µg/mL (≈ 0.453 µM) | MIC (P. vulgaris 16868; [10]): 1.6 µg/mL (≈ 3.62 µM) | MIC (P. vulgaris 17028; [11]): 0.8 µg/mL (≈ 1.81 µM) | MIC (P. vulgaris 5209; [12]): 6.2 µg/mL (≈ 14 µM) | MIC (S. albus 12228; [13]): 0.8 µg/mL (≈ 1.81 µM) | MIC (S. albus 3348; [14]): 0.8 µg/mL (≈ 1.81 µM) | MIC (S. albus 3578; [15]): 0.8 µg/mL (≈ 1.81 µM) | MIC (S. aureus 13709; [16]): 1.6 µg/mL (≈ 3.62 µM) | MIC (S. aureus 209P; [17]): 1.6 µg/mL (≈ 3.62 µM) | MIC (S. aureus 3349; [18]): 1.6 µg/mL (≈ 3.62 µM) | MIC (S. aureus 3356; [19]): 0.8 µg/mL (≈ 1.81 µM) | MIC (S. pyogenes 12334; [20]): < 0.1 µg/mL | MIC (S. pyogenes 12384; [21]): < 0.1 µg/mL
SMILES: CC(=O)OCC1=C(C(=O)O)N2C(=O)C(NC(=O)C(=NO)c3csc(N)n3)C2SC1 (stereo not drawn) [A, 7β-[2-(2-amino-thiazol-4-yl)-2-hydroxyiminoacetamido] cephalosporanic acid, reference compound]

MIC (E. coli 01; [1]): 3.1 µg/mL (≈ 7.3 µM) | MIC (E. coli 04; [2]): 6.2 µg/mL (≈ 14.6 µM) | MIC (K. edwardsii K1; [3]): 6.2 µg/mL (≈ 14.6 µM) | MIC (K. pneumoniae K8; [4]): 12.5 µg/mL (≈ 29.5 µM) | MIC (P. mirabilis 2255; [5]): 1.6 µg/mL (≈ 3.77 µM) | MIC (P. mirabilis 2311; [6]): 0.8 µg/mL (≈ 1.89 µM) | MIC (P. mirabilis 682; [7]): 3.1 µg/mL (≈ 7.3 µM) | MIC (P. morganii 18; [8]): 25 µg/mL (≈ 58.9 µM) | MIC (P. morganii 69; [9]): 25 µg/mL (≈ 58.9 µM) | MIC (P. vulgaris 16868; [10]): > 100 µg/mL | MIC (P. vulgaris 17028; [11]): > 100 µg/mL | MIC (P. vulgaris 5209; [12]): > 100 µg/mL | MIC (S. albus 12228; [13]): 0.4 µg/mL (≈ 0.943 µM) | MIC (S. albus 3348; [14]): 0.2 µg/mL (≈ 0.471 µM) | MIC (S. albus 3578; [15]): 0.2 µg/mL (≈ 0.471 µM) | MIC (S. aureus 13709; [16]): 0.8 µg/mL (≈ 1.89 µM) | MIC (S. aureus 209P; [17]): 1.6 µg/mL (≈ 3.77 µM) | MIC (S. aureus 3349; [18]): 0.8 µg/mL (≈ 1.89 µM) | MIC (S. aureus 3356; [19]): 0.8 µg/mL (≈ 1.89 µM) | MIC (S. pyogenes 12334; [20]): < 0.1 µg/mL | MIC (S. pyogenes 12384; [21]): < 0.1 µg/mL
SMILES: CO/N=C(\C(=O)N[C@@H]1C(=O)N2C(C(=O)O)=C(COC(N)=O)CS[C@H]12)c1ccco1 [B, cefuroxime, reference compound]

SMILES: CC(=O)OCC1=C(C(=O)O)N2C(=O)[C@@H](NC(=O)Cc3cccs3)[C@H]2SC1 [C, cephalotin, reference compound]
MIC (E. coli 01; Escherichia coli, 01, read-out: MIC value in μg/ml): 6.2 µg/mL (≈ 15.6 µM) | MIC (E. coli 04; Escherichia coli, 04, read-out: MIC value in μg/ml): 12.5 µg/mL (≈ 31.5 µM) | MIC (K. edwardsii K1; read-out: MIC value in μg/ml): 0.2 µg/mL (≈ 0.504 µM) | MIC (K. pneumoniae K8; K8, read-out: MIC value in μg/ml): 50 µg/mL (≈ 126 µM) | MIC (P. mirabilis 2255; Proteus mirabilis, 2255, read-out: MIC value in μg/ml): 3.1 µg/mL (≈ 7.82 µM) | MIC (P. mirabilis 2311; Proteus mirabilis, 2311, read-out: MIC value in μg/ml): 12.5 µg/mL (≈ 31.5 µM) | MIC (P. mirabilis 682; Proteus mirabilis, 682, read-out: MIC value in μg/ml): 6.2 µg/mL (≈ 15.6 µM) | MIC (P. morganii 18; Morganella morganii, 18, read-out: MIC value in μg/ml): > 100 µg/mL | MIC (P. morganii 69; Morganella morganii, 69, read-out: MIC value in μg/ml): > 100 µg/mL | MIC (P. vulgaris 16868; Proteus vulgaris, 16868, read-out: MIC value in μg/ml): > 100 µg/mL | MIC (P. vulgaris 17028; Proteus vulgaris, 17028, read-out: MIC value in μg/ml): > 100 µg/mL | MIC (P. vulgaris 5209; Proteus vulgaris, 5209, read-out: MIC value in μg/ml): > 100 µg/mL | MIC (S. albus 12228; Staphylococcus albus, 12228, read-out: MIC value in μg/ml): 0.2 µg/mL (≈ 0.504 µM) | MIC (S. albus 3348; Staphylococcus albus, 3348, read-out: MIC value in μg/ml): < 0.1 µg/mL | MIC (S. albus 3578; Staphylococcus albus, 3578, read-out: MIC value in μg/ml): < 0.1 µg/mL | MIC (S. aureus 13709; Staphylococcus aureus, 13709, read-out: MIC value in μg/ml): 0.4 µg/mL (≈ 1.01 µM) | MIC (S. aureus 209P; 209P, read-out: MIC value in μg/ml): < 0.1 µg/mL | MIC (S. aureus 3349; Staphylococcus aureus, 3349, read-out: MIC value in μg/ml): 0.4 µg/mL (≈ 1.01 µM) | MIC (S. aureus 3356; Staphylococcus aureus, 3356, read-out: MIC value in μg/ml): < 0.1 µg/mL | MIC (S. pyogenes 12334; Streptococcus pyogenes, 12334, read-out: MIC value in μg/ml): < 0.1 µg/mL | MIC (S. pyogenes 12384; Streptococcus pyogenes, 12384, read-out: MIC value in μg/ml): < 0.1 µg/mL
